Measured values: article PMC8791944, “GLUT3 inhibitor discovery through in silico ligand screening and in vivo validation in eukaryotic expression systems” (Scientific Reports, 2022)
Read-outs that look alike come from different tables or passages of the source.

Key:
Format in all cases: cell-based
[1] = system: Caco-2 (colon cancer) cells; assay: MTT cancer cell viability assay, Caco-2; details: Homo sapiens
Description: (§1) A possible therapeutic application of GLUT3 inhibitors is in oncology, especially for cancers in which GLUT3 is a poor prognosis marker. We tested the effect of GLUT3 inhibitors on the cell viability of several different cancer lines: myeloid leukemia (HL60 and U937), lung cancer (A549), colorectal adenocarcinoma (Caco-2), breast cancer (MCF7), hepatocellular carcinoma (HepG2), and choriocarcinoma (BeWo) cells. GLUT3 inhibitors, at five different concentrations, ranging from 2 to 100 µM, were incubated with cancer cells for 48 h. Then, cell viability was assessed with the MTT assay. […] G3iC and G3iD also affected the leukemia cell lines but at double the concentrations of G3iB and G3iE. […] G3iB had some cytotoxic activity (CC50 < 50 µM) against the highest number of cancer cell lines (HL60, U937, A549, HepG2, and MCF7).
(§2) Cancer cell viability in the presence of GLUT3 inhibitors was assayed using the MTT Cell Viability Kit (Biotium Inc, Freemont, CA) according to manufacturer’s instructions. Cancer cells were grown in the corresponding medium, at 37 °C and 5% CO2 in a humidified incubator. The media (Gibco) for leukemia cells (HL60 and U937), A549, MCF7, BeWo, and HepG2 cells were RPMI 1640, Ham’s F-12K, DMEM:F-12, Ham’s F-12K, and EMEM, respectively, all supplemented with 10% (v/v) fetal bovine serum (HyClone). Caco-2 cells were grown in EMEM supplemented with 20% (v/v) fetal bovine serum. Cells were detached from the culture flasks with Accutase (Innovative Cell Technologies, Inc., San Diego, CA) according to manufacturer’s instructions. Cells were seeded in 96-well plates, at a density of ~ 30,000 cells/well (in 100 µl fresh media) and incubated with varying concentrations of GLUT3 inhibitors for 48 h, at 37 °C and 5% CO2 in a humidified incubator. The inhibitors were dissolved in DMSO, at 100× the final concentration, so that 1 µl of the stock inhibitor concentration was added per well, making the final DMSO concentration 1% (v/v). Therefore, controls for 100% cell viability were cells with 1% (v/v) DMSO without the inhibitors. Controls for 0% cell viability were cells treated with 0.3% (v/v) Tween 20. For MTT assay, 10 µl of MTT reagent was added in each well followed by 3–4 h incubation at 37 °C and 5% CO2 in a humidified incubator. After thoroughly mixing in 200 µl DMSO in each well, the plates were put into a plate reader (BioTek Synergy H1), and the absorbances at 570 nm and 630 nm were measured with Gen5 program (BioTek Inc.). The experimental values represent Abs570 nm-Abs630 nm with each inhibitor condition and control being the average of three wells.
(§3) Supplementary Figure S8. Effect of GLUT3 inhibitors on the viability of various cancer cell lines. Cell viability was determined by MTT assay in A549 (lung cancer), BeWo (choriocarcinoma), Caco-2 (colon cancer), HepG2 (liver cancer), HL-60 (leukemia), MCF7 (breast cancer), and U937 (histiocytic lymphoma) cell lines. GLUT3 inhibitors at concentrations of 2, 5, 10, 20, 50, and 100 µM were incubated with cells in 96-well plates for 48 hours before the addition of the MTT reagent.

[2] = system: BeWo (choriocarcinoma) cells; assay: MTT cancer cell viability assay, BeWo; details: Homo sapiens, 48 h
Description: as §1, §2, §3

[3] = system: MCF7 (breast cancer) cells; assay: MTT cancer cell viability assay, MCF7; details: MCF7, 48 h
Description: as §1, §2, §3

[4] = Caco-2, Caco2, 48 h, MTT, read-out: CC50

Row | Compound | CC50 [1, 4] [µM] | CC50 [2] [µM] | CC50 ([3]; Homo sapiens) [µM] | CC50 ([1]; Caco-2, 48 h) [µM] | CC50 [3] [µM]
1 | CC(=O)Nc1ccc(S(=O)(=O)Nc2ccc(Nc3cc(N(C)C)nc(C)n3)cc2)cc1 [G3iA, N-(4-{[(4-{[6-(dimethylamino)-2-methylpyrimidin-4-yl]amino}phenyl)amino]sulfonyl}phenyl)acetamide] | > 100 | > 100 | > 100 | – | –
2 | COc1ccccc1-n1c(/C=C/c2ccc(O)cc2)nc2ccc(Br)cc2c1=O [G3iB, 6-bromo-2-[(E)-2-(4-hydroxyphenyl)ethenyl]-3-(2-methoxyphenyl)quinazolin-4(3H)-one] | – | > 50 | < 50 | > 50 | 42.6 ± 4.2
3 | Cc1cccnc1OC1CCN(c2cc(N3CCCC3CO)ncn2)CC1 (stereo not shown) [G3iC] | > 100 | > 100 | > 50 | – | –
4 | Cc1cc(NC(=O)CCC2Cc3ccccc3NC2=O)nc(-c2ccccc2)n1 (stereo not shown) [G3iD] | > 100 | > 100 | > 50 | – | –
5 | O=C(Nc1cccc(Cl)c1)c1cccc(NC(=O)c2cccc([N+](=O)[O-])c2)c1 [G3iE, N-{3-[(3-chloroanilino)carbonyl]phenyl}-3-nitrobenzamide] | > 50 | > 50 | > 100 | – | –
6 | Cc1ccccc1CN(Cc1nnc(C(C)(C)C)o1)c1ccc2nc(O)[nH]c2c1 [G3iF] | > 100 | ~100 | > 100 | – | –
